Test results reported in PubChem BioAssay AID549 (SRMLSC, 2006).
Activity calls are given as the source filed them.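 The calls were made as follows: active = clearly stronger inhibition of phosphomevalonate kinase than of the coupling enzymes alone in a parallel counterscreen; inactive = the rest.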

Molecular target: phosphomevalonate kinase (Streptococcus pneumoniae D39)
Assay: S. pneumoniae PMK inhibitor potency, dose response, biochemical, mevalonate pathway, coupling enzyme counter-screen (AID 549)
Conditions: PK/LDH coupled NADH absorbance 340 nm

SMILES	outcome
O=c1c[n+]([O-])c2ccccc2n1OCc1c(F)cccc1F	inactive
Cc1ccc(S(=O)(=O)N2CCN(c3nc(C(C)C)c4c(c3C#N)CC(C)(C)OC4)CC2)cc1	inactive
Cc1csc(C(C#N)C(=O)c2ccc(S(=O)(=O)N3CCCC3)cc2)n1 (stereo not drawn)	inactive
Cc1ccc(C)c(N(CC(=O)NC2CCCC2)C(=O)CCCC(=O)Nc2ccccn2)c1	inactive
CCOc1ccccc1C(=O)NCC(=O)OCC(=O)c1ccc2c(c1)OCCO2	inactive
CCc1nnc(NC(=O)CSc2nnc(Cc3cccn3C)n2C)s1	inactive
CNC(=O)Cn1ncc2c(C)n(Cc3ccc(C)cc3)c(C)c2c1=O	inactive
Cc1cc(C)n2nc(SCC(=O)NCc3ccco3)nc2n1	inactive
CC1(C(=O)NC2CCCCCCC2)CCC(=O)N1Cc1ccco1 (stereo not drawn)	inactive
Cc1nnc(SCc2ccccc2)n1N	inactive
Cc1n[nH]c(=S)n(/N=C/c2ccccn2)c1=O	inactive
Cc1cc(OCC(=O)NCCO)cc(C)c1Cl	inactive
Cc1nnc(SCC(=O)Nc2ncc(Cc3ccc(F)cc3)s2)n1N	inactive
c1ccc(CCn2nnnc2C(c2cccs2)N2CCOCC2)cc1 (stereo not drawn)	inactive
Cc1nnc(SCC(=O)Nc2nsc(-c3ccccc3)n2)s1	inactive
Cc1ccnc(N2CCC(C(=O)Nc3ccc(Oc4ccccc4)cc3)CC2)n1	inactive
COCCCNC(=O)C1C2C=CC3(CN(Cc4ccc(C)cc4)C(=O)C13)O2 (stereo not drawn)	inactive
Cc1occc1C(=O)Nc1nnc(C(F)(F)F)s1	inactive
O=C(O)C1=C(C(=O)Nc2ccc(F)c(Cl)c2)CCCC1	inactive
CC(C)(C)NS(=O)(=O)c1ccc(NS(=O)(=O)c2ccc(F)cc2)cc1	inactive
CCOC(=O)c1[nH]nc(C(=O)c2ccc(Br)cc2)c1O	inactive
c1ccc(NC(=NCc2ccco2)c2ccccc2)cc1	inactive

SMILES	outcome
COc1ccc(CNC(=O)C2CCN(S(=O)(=O)c3cccc4cccnc34)CC2)cc1	inactive
Cc1ccc(CN2CCN(C(=O)C3CCC3)CC2)cc1	inactive
CCNC(=O)CN(c1ccc(C)cc1)S(=O)(=O)c1ccc(SC)cc1	inactive
CCOc1cc(C(=O)NCc2nnc(SCC(=O)OC)n2C)cc(OCC)c1OCC	inactive
O=C(c1cc2nc(-c3ccco3)cc(C(F)(F)F)n2n1)N1CCc2ccccc2C1	inactive
CCOc1ccc(CNC(=O)C2CCN(S(=O)(=O)N3CCCC3)CC2)cc1OC	inactive
O=C(Cc1coc(-c2ccc(F)cc2)n1)N1CCOCC1	inactive
CC(c1ccccc1)C(CC(=O)O)C(=O)NC1CCCCC1 (stereo not drawn)	inactive
COc1ccc2c(c1)c(C(=O)CNc1nc(C)cs1)c(C)n2C	inactive
COC(=O)C1=C(C)OC(N)=C(C#N)C1c1cc(OC)c(OCC(N)=O)cc1Cl (stereo not drawn)	inactive
COc1cccc2cc(C(=O)N3CCN(c4ccccc4F)CC3)c(=O)oc12	inactive
CCn1c2ccccc2c2cc(CN3CCN(C(=O)c4ccco4)CC3)ccc21	inactive
CC(C)CN(CC(C)C)S(=O)(=O)N1CCC(C(=O)NC2CCCCCCC2)CC1	inactive
CCC1Oc2ccc(C)cc2N(CC(=O)NCCN2CCCCCC2)C1=O (stereo not drawn)	inactive
CC(C)(C)NC(=O)CSc1nnc(-c2ccccn2)n1-c1ccccc1	inactive
CCS(=O)(=O)N1CCC(C(=O)NCC2CCCO2)CC1 (stereo not drawn)	inactive
O=c1c(-c2ccccc2)c(O)c2cccc3c2n1CCC3	inactive
COc1ccc(C(=O)Nc2ccccc2C(=O)NC(C(=O)NCc2ccco2)C(C)C)cc1 (stereo not drawn)	inactive
CCOCCCNC(=O)C1CCN(S(=O)(=O)N(CC(C)C)CC(C)C)CC1	inactive
Cc1cc(=O)n2[nH]c(-c3ccccc3Cl)cc2n1	inactive
CC(=O)N1CCN(c2nc3cc4c(cc3nc2NS(=O)(=O)c2ccccc2)OCCO4)CC1	inactive
CCOC(=O)C1=C(C)NC(=O)NC1/C(C)=C/c1ccccc1 (stereo not drawn)	inactive

SMILES	outcome
CCc1nn(C(C)C(=O)NC(C)CCc2ccco2)c(=O)c2cc3occc3n12 (stereo not drawn)	inactive
CCOc1ccc2[nH]c(=O)c(C(c3nnnn3CC3CCCO3)N3CCc4ccccc4C3)cc2c1 (stereo not drawn)	inactive
O=C(Nc1c(-c2ccccc2)nc2sccn12)c1ccccc1	inactive
CS(=O)(=O)N1CCCC(C(=O)N2CCOCC2)C1 (stereo not drawn)	inactive
O=C(CCc1nc2ccccc2c(=O)[nH]1)OCC(=O)N1CCN(S(=O)(=O)c2ccccc2)CC1	inactive
NC(=O)CCN(Cc1ccccc1)S(=O)(=O)c1ccccc1	inactive
C=CCSc1nnc(Cn2c(=O)sc3ccccc32)n1C	inactive
CON(C)c1nc(OCCNC(=O)OCc2ccc(Cl)cc2Cl)nc(N(C)C)n1	inactive
CC(C)(C)c1ccccc1OCCCCCNCCO	inactive
COC(=O)CNc1nc(-c2ccccc2F)nc2ccccc12	inactive
CCOC(=O)c1ccc(NC(=O)CSc2nc(C)cc(=O)[nH]2)cc1	inactive
CC1(C)CC(C)(O)P(=O)(c2ccccc2)O1 (stereo not drawn)	inactive
Cn1c(SCC(=O)N2CCOCC2)nnc1-c1ccc(NC(=O)c2ccccc2F)cc1	inactive
O=C(CNCC1CCCO1)Nc1ccccc1N1CCOCC1 (stereo not drawn)	inactive
O=C(CSc1nc(-c2ccccc2)cs1)N1CCN(C(=O)c2ccco2)CC1	inactive
Clc1ccc(C(c2nnnn2C2CCCC2)N2CCN(Cc3ccncc3)CC2)cc1 (stereo not drawn)	inactive
O=C1CC(c2ccccc2)CC(O)=C1C=NCC1CCCO1 (stereo not drawn)	inactive
CC12C=CC3(CN(Cc4ccccc4)C(=O)C3C1C(=O)NC1CC1)O2 (stereo not drawn)	inactive
CCn1c(COc2ccccc2C)nnc1SCC(=O)N1CCCCC1	inactive
O=C(NCCCNC(=O)c1ccccn1)c1ccccn1	inactive
Cc1occc1-c1nnc(SCC(=O)N2CCOCC2)n1Cc1ccco1	inactive
CCCCS(=O)(=O)C(=C1Nc2ccccc2N1)S(=O)(=O)CCCC	inactive

SMILES	outcome
CCOC(=O)N1CCN(C(=O)C2CCN(S(=O)(=O)N3CCCC3)CC2)CC1	inactive
COc1ccc2c(c1)OC1(C)CC2C(C(=O)c2ccccc2OC)C(=O)N1 (stereo not drawn)	inactive
CN1CCN(S(=O)(=O)c2cccc(S(=O)(=O)c3ccc(Cl)c(Cl)c3)c2)CC1	inactive
Cc1cccc(-n2nc3c(c2NC(=O)c2ccco2)CSC3)c1C	inactive
Cc1ccc(C(c2nnnn2CC2CCCO2)N2CCN(C(=O)c3ccco3)CC2)cc1 (stereo not drawn)	inactive
Cc1cc(C)n2c(SCC(=O)N(C)C3CCS(=O)(=O)C3)nnc2n1 (stereo not drawn)	inactive
CNC(=O)C1CC(=O)N(Cc2ccc3c(c2)OCO3)C(=Nc2ccc(OC)cc2)S1 (stereo not drawn)	inactive
COc1ccc(NC(=O)c2ccco2)cc1NC(=O)c1ccc(C)cc1	inactive
Cc1nnc(SCC(=O)N2CC(=O)Nc3ccccc32)n1-c1ccccc1	inactive
Cc1nc2ccccc2n2c(O)c(CC(=O)O)cc12	inactive
CCOC(=O)C1=C(N)OC2=C(C(=O)CCC2)C1c1ccc(C)s1 (stereo not drawn)	inactive
CCCOc1ccc(-c2nnn(CC(=O)Nc3cccc(C(=O)OC)c3)n2)cc1	inactive
Cc1ccc(NC(=O)CSc2nnc(Cn3c(=O)sc4ccccc43)n2C)cc1Cl	inactive
CCN(CC)C(=O)C1CCCN(C/C(C)=C/c2ccccc2)C1 (stereo not drawn)	inactive
O=C(Nc1ccc(F)cc1)N(CCCN1CCOCC1)Cc1cc2cc3c(cc2[nH]c1=O)OCO3	inactive
CCC(C)(C)NC(=O)C(c1ccccc1F)N(Cc1ccco1)C(=O)c1csnn1 (stereo not drawn)	inactive
Cc1ccsc1C1C(C(=O)O)c2ccccc2C(=O)N1C (stereo not drawn)	inactive
CCn1c(SCC(=O)c2[nH]c(C)c(C(C)=O)c2C)nnc1-c1cccs1	inactive
Cc1cccc(OCCCc2c(C)n[nH]c2C)c1	inactive
COC(=O)C(NC(=O)c1ccccc1)=C1C=C(C)OC(C)=C1	inactive
CC1(C)CC(=O)C(C(C2=C(O)CC(C)(C)CC2=O)c2cccc(O)c2)C(=O)C1 (stereo not drawn)	inactive
CC(=O)N1CCc2cc(S(=O)(=O)NC3CCCc4ccccc43)ccc21 (stereo not drawn)	inactive

SMILES	outcome
CC(C)(C)NC(=O)CSc1ncnc2c1nnn2Cc1ccccc1Cl	inactive
COC(=O)c1nonc1NCn1nnc2ccccc21	inactive
CCC(Sc1nccn1C)C(=O)Nc1cccc2ccccc12 (stereo not drawn)	inactive
COc1ccc(Br)cc1CNC(=O)C1CCN(S(=O)(=O)N2CCCC2)CC1	inactive
Cn1c(=O)c2c(nc(N3CCOCC3)n2C)n(C)c1=O	inactive
CN(C(=O)C1CCOC1)c1nnc(C2CCOC2)s1 (stereo not drawn)	inactive
CC(C)CCn1nnnc1C(c1ccc(F)cc1)N1CCN(C(=O)c2ccco2)CC1 (stereo not drawn)	inactive
COc1ccc2c(c1OC)CN(C)CCc1cc3c(cc1C(O)C2)OCO3 (stereo not drawn)	inactive
CCOCC(=O)NC1CCSC1=O (stereo not drawn)	inactive
COc1ccccc1-n1c(SCC(=O)N2CCCCC2)nnc1-c1ccccc1O	inactive
CCN=c1sc(C(=O)NCCc2ccccc2)cc(=O)n1CC	inactive
COC(=O)c1cn(-c2ccccc2)nc1C(=O)OC	inactive
CCOc1ccc2[nH]c(=O)c(CN(CCO)C(=O)c3ccc(Br)cc3)cc2c1	inactive
Cc1cc(NCCCN2CCOCC2)n2nc(C)c(-c3ccc(F)cc3)c2n1	inactive
CN(C)c1ccc(-c2nc3ccccc3n2C)cc1	inactive
Cc1nn(Cc2ccccc2)c2c1C(c1ccncc1)C(C#N)=C(N)O2 (stereo not drawn)	inactive
CC1CCN(C(=O)CSc2nc3ccccc3[nH]2)CC1	inactive
COc1ccccc1CN(Cc1cc2cc(C)cc(C)c2[nH]c1=O)Cc1nnnn1CC1CCCO1 (stereo not drawn)	inactive
N#Cc1c(N)sc(=S)c2c1CCN(Cc1ccccc1)C2	inactive
CC(CC(=O)O)NCC1COc2ccccc2O1 (stereo not drawn)	inactive
